From BindingDB's records for doi:10.1016/j.ejmech.2017.01.044 (Universidade De Lisboa, 2017)

Assay: Inhibition of human ABCB1 expressed in mouse L5178Y cells assessed as reduction in cell growth after 24 hrs by MTT assay

In the case of `CC[C@H]1CN(C)[C@H]2Cc3c([nH]c4ccccc34)/C(=N/NC(N)=O)C[C@H]1[C@@H]2C(=O)OC`, the IC50 is reported as > 100 µM.
`CC[C@H]1CN(C)[C@H]2Cc3c([nH]c4ccccc34)/C(=N/Nc3ccc(Br)cn3)C[C@H]1[C@@H]2C(=O)OC` showed an IC50 of 39.9 µM.
`CC[C@H]1CN(C)[C@H]2Cc3c(n(Cc4ccccc4)c4ccccc34)C(=O)C[C@H]1[C@@H]2C(=O)OC` gave an IC50 of 38.1 µM.
`CC[C@@H]1CN(C)[C@H]2Cc3c([nH]c4ccccc34)/C(=N/Nc3ccccc3)C[C@H]1[C@@H]2C(=O)OC` showed an IC50 of 17 µM.
For `CC[C@H]1CN(C)[C@H]2Cc3c([nH]c4ccccc34)/C(=N/Nc3ccccc3)C[C@H]1[C@@H]2C(=O)OC`, the IC50 was 52.7 µM.
Work on `CC[C@H]1CN(C)[C@H]2Cc3c([nH]c4ccccc34)/C(=N/O)C[C@H]1[C@@H]2C(=O)OC` yielded an IC50 of 16.7 µM.
With `C/C=C/C(=O)O[C@H]1C[C@@H]2[C@@H](CC)CN(C)[C@@H](Cc3c1[nH]c1ccccc31)[C@H]2C(=O)OC` the IC50 was > 100 µM.
With `CC[C@@H]1CN(C)[C@H]2Cc3c([nH]c4ccccc34)/C(=N/NC(N)=O)C[C@H]1[C@@H]2C(=O)OC` the IC50 was > 100 µM.
For `CC[C@H]1CN(C)[C@H]2Cc3c(n(C(=O)c4cccc(C)c4)c4ccccc34)C(=O)C[C@H]1[C@@H]2C(=O)OC`, the IC50 was > 100 µM.
Compound `CC[C@@H]1CN(C)[C@H]2Cc3c([nH]c4ccccc34)[C@@H](O)C[C@H]1[C@@H]2C(=O)OC` has an IC50 of 83.9 µM.
With `CC[C@H]1CN(C)[C@H]2Cc3c([nH]c4ccccc34)/C(=N/NC(=S)NCc3cccnc3)C[C@H]1[C@@H]2C(=O)OC` the IC50 was 45.2 µM.
In the case of `CC[C@H]1CN(C)[C@H]2Cc3c(n(CCN(CC)CC)c4ccccc34)C(=O)C[C@H]1[C@@H]2C(=O)OC`, the IC50 is reported as > 100 µM.
For `CC[C@@H]1CN(C)[C@H]2Cc3c([nH]c4ccccc34)/C(=N/Nc3cnccn3)C[C@H]1[C@@H]2C(=O)OC`, the IC50 was > 100 µM.
With `CC[C@H]1CN(C)[C@H]2Cc3c([nH]c4ccccc34)/C(=N/NC(=O)OCc3ccc(OC)cc3)C[C@H]1[C@@H]2C(=O)OC` the IC50 was 52.3 µM.
`CC[C@H]1CN(C)[C@H]2Cc3c([nH]c4ccccc34)C(=S)C[C@H]1[C@@H]2C(=O)OC` gave an IC50 of 77.9 µM.
With `CC[C@@H]1CN(C)[C@H]2Cc3c([nH]c4ccccc34)/C(=N/Nc3ccc(Br)cn3)C[C@H]1[C@@H]2C(=O)OC` the IC50 was 37.6 µM.
`CC[C@@H]1CN(C)[C@H]2Cc3c([nH]c4ccccc34)/C(=N/O)C[C@H]1[C@@H]2C(=O)OC` showed an IC50 of 85.4 µM.
For `CC[C@@H]1CN(C)[C@H]2Cc3c([nH]c4ccccc34)[C@@H](OC(=O)C34CC5CC(CC(C5)C3)C4)C[C@H]1[C@@H]2C(=O)OC`, the IC50 was > 100 µM.
Work on `CC[C@H]1CN(C)[C@H]2Cc3c(n(C)c4ccccc34)C(=O)C[C@H]1[C@@H]2C(=O)OC` yielded an IC50 of 89.2 µM.
For `CC[C@H]1CN(C)[C@H]2Cc3c([nH]c4ccccc34)[C@@H](O)C[C@H]1[C@@H]2C(=O)OC`, the IC50 was > 100 µM.
For `CC[C@H]1CN(C)[C@H]2Cc3c([nH]c4ccccc34)C(=O)C[C@H]1[C@@H]2C(=O)OC`, the IC50 was > 100 µM.
`CC[C@H]1CN(C)[C@H]2Cc3c([nH]c4ccccc34)/C(=N/Nc3cnccn3)C[C@H]1[C@@H]2C(=O)OC` gave an IC50 of 84.8 µM.
With `CC[C@@H]1CN(C)[C@H]2Cc3c([nH]c4ccccc34)C(=O)C[C@H]1[C@@H]2C(=O)OC` the IC50 was > 100 µM.
